Data reported in US20050112573A1, “Method of detecting toxic substance” (priority 2001, published 2005).

System: yeast genes (level of expressed mRNA)
Test: DNA chip analysis of expressed mRNA of yeast genes after 2 h culture with a toxic chemical substance
Type: cell-based, Saccharomyces cerevisiae S288C
Protocol: Yeast (Saccharomyces cerevtisiae S288C (α SUC2mal mel gap2 CUP1)) were cultured at 25° C. on YPD medium (yeast extract 1%, polypepton 2%, glucose 2%). One of toxic chemical substances was added to the cell at logarithmic growth phase, and the cell was further cultured for two hours. Cell was cultured without any chemical substance in the same condition, and was used as control. Concentrations of the chemical substances were defined to inhibit the growth of the yeast but not lead to death.
After the completion of cultivation, the culture was centrifuged to collect the cells. To the cells, sodium acetate buffer (50 mM sodium acetate, 10 mM EDTA, 1% SDS) was added, and the mixture was shaken at 65° C. for five minutes, followed by returning to room temperature, and obtaining the supernatant, which procedure was repeated two times. To the supernatant, ½ amount of a solution of phenol/chloroform was added, and the mixture was centrifuged to give a supernatant, which was added with an equal amount of chloroform, and the mixture was centrifuged to give a supernatant. To the supernatant, an equal amount of isopropanol containing 0.3 M sodium acetate was added, and the mixture was allowed to stand at room temperature for 30 minutes, after which the mixture was centrifuged to give a sediment of the whole RNAs. Seventy % ethanol was added to the sediment, and the mixture was again centrifuged to give a sediment, which was then dried and dissolved in water. mRNA was isolated from the whole RNAs as followings. In view of the fact that a poly A chain is attached to the 3′ terminus of mRNA, a polynucleotide having a poly T structure which was immobilized on the surface of latex beads was used to trap the mRNA, and then the mRNA was washed and eluted with spine column (Oligotex-dT30<Super>mRNA Purification Kit, Takara). Reverse transcription of the mRNA was conducted with a reverse transcriptase (Super Script II Reverse Transcriptase; catalogue No. 18064-014, GibcoBRL) using fluorescence-labeled nucleotides to give cDNAs that were introduced with Cy3-dUTP or Cy5-dUTP during the reverse transcription.
The labeled cDNAs were dissolved in TE buffer (10 mM Tris-HCl/1 mM EDTA, pH8.0), and the solution was dropped on the DNA chip containing the whole genes of yeast (DNA Chip Research Inc. Japan) so that the cDNAs were hybridized on the DNA chip at 65° C. for over 12 hours. The fluoresces intensity of the DNA chip was read with a scanner, and the ratio relative to the fluorescence intensity resulting from the absence of chemical substance was estimated as the following, which is shown in Tables 1 to 9: [formula]
In the Tables, “Intensity” indicated in the rightmost column is a value of the level of expressed mRNA of each gene in control cells as divided by the average level of the expressions of the whole genes.

HgCl2 [(3)]
The level of expressed mRNA in the presence of chemical substance/ (yeast gene YFL010C, ratio to control without chemical substance, 2 h culture): 1.3 | The level of expressed mRNA in the presence of chemical substance/ (yeast gene YFL024C, ratio to control without chemical substance, 2 h culture): 1.1 | The level of expressed mRNA in the presence of chemical substance/The level of expressed mRNA in the absence of chemical substance (yeast gene YFL028C): 0.7 | The level of expressed mRNA in the presence of chemical substance/ (yeast gene YFL032W, ratio to control without chemical substance, 2 h culture): 1.6 | The level of expressed mRNA in the presence of chemical substance/The level of expressed mRNA in the absence of chemical substance (yeast gene YFL043C): 0.6 | The level of expressed mRNA in the presence of chemical substance/in the absence of chemical substance (yeast gene YGL035C): 4.3 | The level of expressed mRNA in the presence of chemical substance/ (yeast gene YGL037C, ratio to control without chemical substance, 2 h culture): 6.5 | The level of expressed mRNA in the presence of chemical substance/ (yeast gene YGL047W, ratio to control without chemical substance, 2 h culture): 1.6 | The level of expressed mRNA in the presence of chemical substance/ (yeast gene YGL053W, ratio to control without chemical substance, 2 h culture): 1.2 | The level of expressed mRNA in the presence of chemical substance/ (yeast gene YGL121C, ratio to control without chemical substance, 2 h culture): 1.4 | The level of expressed mRNA in the presence of chemical substance/The level of expressed mRNA in the absence of chemical substance (yeast gene YGL158W): 1.9 | The level of expressed mRNA in the presence of chemical substance/ (yeast gene YGL199C, ratio to control without chemical substance, 2 h culture): 1.7 | The level of expressed mRNA in the presence of chemical substance/The level of expressed mRNA in the absence of chemical substance (yeast gene YGL229C): 0.9 | The level of expressed mRNA in the presence of chemical substance/ (yeast gene YGR101W, ratio to control without chemical substance, 2 h culture): 1.2 | The level of expressed mRNA in the presence of chemical substance/ (yeast gene YGR110W, ratio to control without chemical substance, 2 h culture): 2.2 | The level of expressed mRNA in the presence of chemical substance/ (yeast gene YGR130C, ratio to control without chemical substance, 2 h culture): 0.6 | The level of expressed mRNA in the presence of chemical substance/The level of expressed mRNA in the absence of chemical substance (yeast gene YGR136W): 1.3 | The level of expressed mRNA in the presence of chemical substance/ (yeast gene YGR154C, ratio to control without chemical substance, 2 h culture): 2.2 | The level of expressed mRNA in the presence of chemical substance/The level of expressed mRNA in the absence of chemical substance (yeast gene YGR189C): 1.5 | The level of expressed mRNA in the presence of chemical substance/The level of expressed mRNA in the absence of chemical substance (yeast gene YGR213C): 1.0 | The level of expressed mRNA in the presence of chemical substance/ (yeast gene YGR221C, ratio to control without chemical substance, 2 h culture): 0.9 | The level of expressed mRNA in the presence of chemical substance/The level of expressed mRNA in the absence of chemical substance (yeast gene YGR257C): 0.9 | The level of expressed mRNA in the presence of chemical substance/in the absence of chemical substance (yeast gene YGR287C): 1.3 | The level of expressed mRNA in the presence of chemical substance/The level of expressed mRNA in the absence of chemical substance (yeast gene YHR004C): 0.8 | The level of expressed mRNA in the presence of chemical substance/The level of expressed mRNA in the absence of chemical substance (yeast gene YHR071W): 0.6 | The level of expressed mRNA in the presence of chemical substance/ (yeast gene YHR138C, ratio to control without chemical substance, 2 h culture): 2.2 | The level of expressed mRNA in the presence of chemical substance/The level of expressed mRNA in the absence of chemical substance (yeast gene YHR139C): 6.8 | The level of expressed mRNA in the presence of chemical substance/The level of expressed mRNA in the absence of chemical substance (yeast gene YHR142W): 2.1 | The level of expressed mRNA in the presence of chemical substance/ (yeast gene YHR199C, ratio to control without chemical substance, 2 h culture): 3.2 | The level of expressed mRNA in the presence of chemical substance/ (yeast gene YIL023C, ratio to control without chemical): 2.1 | The level of expressed mRNA in the presence of chemical substance/ (yeast gene YIL041W, ratio to control without chemical substance, 2 h culture): 2.1 | The level of expressed mRNA in the presence of chemical substance/ (yeast gene YIL087C, ratio to control without chemical substance, 2 h culture): 3.4 | The level of expressed mRNA in the presence of chemical substance/The level of expressed mRNA in the absence of chemical substance (yeast gene YIL123W): 1.2 | The level of expressed mRNA in the presence of chemical substance/The level of expressed mRNA in the absence of chemical substance (yeast gene YIL140W): 1.5 | The level of expressed mRNA in the presence of chemical substance/ (yeast gene YJL057C, ratio to control without chemical substance, 2 h culture): 1.6 | The level of expressed mRNA in the presence of chemical substance/ (yeast gene YJL066C, ratio to control without chemical substance, 2 h culture): 1.2 | The level of expressed mRNA in the presence of chemical substance/in the absence of chemical substance (yeast gene YJL070C): 1.1 | The level of expressed mRNA in the presence of chemical substance/The level of expressed mRNA in the absence of chemical substance (yeast gene YJL073W): 2.5 | The level of expressed mRNA in the presence of chemical substance/ (yeast gene YJL082W, ratio to control without chemical substance, 2 h culture): 2.4 | The level of expressed mRNA in the presence of chemical substance/The level of expressed mRNA in the absence of chemical substance (yeast gene YJL089W): 1.0 | The level of expressed mRNA in the presence of chemical substance/The level of expressed mRNA in the absence of chemical substance (yeast gene YJL116C): 1.3 | The level of expressed mRNA in the presence of chemical substance/ (yeast gene YJL151C, ratio to control without chemical substance, 2 h culture): 3.2 | The level of expressed mRNA in the presence of chemical substance/ (yeast gene YJL152W, ratio to control without chemical substance, 2 h culture): 1.8 | The level of expressed mRNA in the presence of chemical substance/ (yeast gene YJL161W, ratio to control without chemical substance, 2 h culture): 1.5 | The level of expressed mRNA in the presence of chemical substance/in the absence of chemical substance (yeast gene YJL167W): 1.4 | The level of expressed mRNA in the presence of chemical substance/ (yeast gene YJL171C, ratio to control without chemical substance, 2 h culture): 2.8 | The level of expressed mRNA in the presence of chemical substance/in the absence of chemical substance (yeast gene YJL216C): 2.2 | The level of expressed mRNA in the presence of chemical substance/The level of expressed mRNA in the absence of chemical substance (yeast gene YJR004C): 3.4 | The level of expressed mRNA in the presence of chemical substance/ (yeast gene YJR008W, ratio to control without chemical substance, 2 h culture): 1.2 | The level of expressed mRNA in the presence of chemical substance/ (yeast gene YJR054W, ratio to control without chemical): 0.3 | The level of expressed mRNA in the presence of chemical substance/The level of expressed mRNA in the absence of chemical substance (yeast gene YJR086W): 0.8 | The level of expressed mRNA in the presence of chemical substance/The level of expressed mRNA in the absence of chemical substance (yeast gene YKL008C): 2.0 | The level of expressed mRNA in the presence of chemical substance/The level of expressed mRNA in the absence of chemical substance (yeast gene YKL013C): 1.4 | The level of expressed mRNA in the presence of chemical substance/The level of expressed mRNA in the absence of chemical substance (yeast gene YKL039W): 2.4 | The level of expressed mRNA in the presence of chemical substance/The level of expressed mRNA in the absence of chemical substance (yeast gene YKL041W): 1.1 | The level of expressed mRNA in the presence of chemical substance/ (yeast gene YKL071W, ratio to control without chemical substance, 2 h culture): 5.4
